In patent publication US10781204B2, “TYK2 inhibitors and uses thereof” (Nimbus Lakshmi, Inc., priority 2015, dated 2020):

Columns and labels:
JAK2 = JAK2 (Homo sapiens (Human), UniProt O60674); test: JAK2 radioactive kinase assay; assay type: biochemical; settings: ATP 10 μM
Method in brief: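 Radiometric assay in Hepes pH 7.5, MgCl2, EGTA, Brij35, BSA, DTT, 1% DMSO, with 10 μM [33P]ATP, 120 min at room temp; P81 paper capture and counting. […]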

[1] = system: Tyk2-pSTAT4 (IL-12 induced pSTAT4); test: IL-12 induced pSTAT4 in human PBMC; assay type: cell-based; settings: 1.7 ng/mL IL-12, 30 minutes
Method in brief: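 pSTAT4 and total STAT4 quantified by MSD in cell lysates after 30 minutes of 1.7 ng/mL IL-12 stimulation. Beforehand, compound (0.1% DMSO final) sat 1 hr at 37 C on 200,000 thawed buffy-coat PBMC per well in serum-containing medium.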

[2] = system: JAK2-pSTAT5 (GM-CSF induced pSTAT5); test: GM-CSF induced pSTAT5 in human PBMC; assay type: cell-based; settings: Homo sapiens, PBMC, 20 min, 5 ng/mL GM-CSF
Method in brief: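 Thawed human PBMC, 200,000 per well in serum-containing medium, were preincubated 1 hr at 37 C with compound in 0.1% DMSO. GM-CSF at 5 ng/mL final was added for 20 minutes, then pSTAT5 and total STAT5 in lysates were measured by MSD immunoassay.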

TYK2 = TYK2 (Homo sapiens (Human), UniProt P29597); test: Tyk2 radioactive kinase assay; assay type: biochemical; settings: ATP 10 μM
Chain of TYK2 (P29597 whole entry): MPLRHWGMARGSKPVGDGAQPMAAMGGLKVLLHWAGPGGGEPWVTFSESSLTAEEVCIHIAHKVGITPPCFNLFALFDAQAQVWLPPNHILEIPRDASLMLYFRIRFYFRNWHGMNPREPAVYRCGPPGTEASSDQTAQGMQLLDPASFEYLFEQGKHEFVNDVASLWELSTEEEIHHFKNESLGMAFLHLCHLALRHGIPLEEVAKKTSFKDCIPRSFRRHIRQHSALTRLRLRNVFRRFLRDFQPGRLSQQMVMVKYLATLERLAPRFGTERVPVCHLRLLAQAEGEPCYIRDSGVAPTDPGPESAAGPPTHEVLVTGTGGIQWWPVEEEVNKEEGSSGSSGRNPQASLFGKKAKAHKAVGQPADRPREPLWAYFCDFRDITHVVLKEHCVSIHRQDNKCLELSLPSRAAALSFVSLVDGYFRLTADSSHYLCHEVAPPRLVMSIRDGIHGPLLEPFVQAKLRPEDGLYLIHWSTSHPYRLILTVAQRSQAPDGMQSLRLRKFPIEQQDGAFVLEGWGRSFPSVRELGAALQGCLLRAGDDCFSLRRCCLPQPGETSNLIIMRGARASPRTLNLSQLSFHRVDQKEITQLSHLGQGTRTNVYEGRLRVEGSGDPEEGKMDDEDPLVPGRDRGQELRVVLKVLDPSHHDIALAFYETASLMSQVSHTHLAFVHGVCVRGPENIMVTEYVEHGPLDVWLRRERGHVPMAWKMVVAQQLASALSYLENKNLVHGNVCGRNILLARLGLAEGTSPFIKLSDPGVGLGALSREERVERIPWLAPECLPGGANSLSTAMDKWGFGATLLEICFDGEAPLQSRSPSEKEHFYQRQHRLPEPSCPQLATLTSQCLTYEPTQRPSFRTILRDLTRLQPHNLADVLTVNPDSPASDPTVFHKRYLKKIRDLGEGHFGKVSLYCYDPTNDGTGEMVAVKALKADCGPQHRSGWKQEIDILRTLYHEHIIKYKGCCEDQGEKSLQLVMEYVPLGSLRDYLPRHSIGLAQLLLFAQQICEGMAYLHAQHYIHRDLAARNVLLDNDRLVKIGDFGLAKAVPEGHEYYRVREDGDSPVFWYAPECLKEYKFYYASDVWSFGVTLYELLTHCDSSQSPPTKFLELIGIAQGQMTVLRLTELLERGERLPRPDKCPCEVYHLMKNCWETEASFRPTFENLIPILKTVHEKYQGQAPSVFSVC
Method in brief: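 Recombinant human TYK2 (Invitrogen) was mixed with 20 μM peptide substrate in a buffer of 20 mM Hepes pH 7.5, 10 mM MgCl2, 1 mM EGTA, 0.02% Brij35, 0.02 mg/mL BSA, 0.1 mM […], 2 mM DTT and 1% DMSO, and compounds in DMSO were added. Adding ^33P-ATP (10 μM ATP) started the reaction, which ran 120 min at room temperature. Mixtures were then spotted onto P81 ion-exchange paper, washed thoroughly in 0.75% phosphoric acid, and counted for radioactivity.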

Chain of JAK2 (O60674 whole entry): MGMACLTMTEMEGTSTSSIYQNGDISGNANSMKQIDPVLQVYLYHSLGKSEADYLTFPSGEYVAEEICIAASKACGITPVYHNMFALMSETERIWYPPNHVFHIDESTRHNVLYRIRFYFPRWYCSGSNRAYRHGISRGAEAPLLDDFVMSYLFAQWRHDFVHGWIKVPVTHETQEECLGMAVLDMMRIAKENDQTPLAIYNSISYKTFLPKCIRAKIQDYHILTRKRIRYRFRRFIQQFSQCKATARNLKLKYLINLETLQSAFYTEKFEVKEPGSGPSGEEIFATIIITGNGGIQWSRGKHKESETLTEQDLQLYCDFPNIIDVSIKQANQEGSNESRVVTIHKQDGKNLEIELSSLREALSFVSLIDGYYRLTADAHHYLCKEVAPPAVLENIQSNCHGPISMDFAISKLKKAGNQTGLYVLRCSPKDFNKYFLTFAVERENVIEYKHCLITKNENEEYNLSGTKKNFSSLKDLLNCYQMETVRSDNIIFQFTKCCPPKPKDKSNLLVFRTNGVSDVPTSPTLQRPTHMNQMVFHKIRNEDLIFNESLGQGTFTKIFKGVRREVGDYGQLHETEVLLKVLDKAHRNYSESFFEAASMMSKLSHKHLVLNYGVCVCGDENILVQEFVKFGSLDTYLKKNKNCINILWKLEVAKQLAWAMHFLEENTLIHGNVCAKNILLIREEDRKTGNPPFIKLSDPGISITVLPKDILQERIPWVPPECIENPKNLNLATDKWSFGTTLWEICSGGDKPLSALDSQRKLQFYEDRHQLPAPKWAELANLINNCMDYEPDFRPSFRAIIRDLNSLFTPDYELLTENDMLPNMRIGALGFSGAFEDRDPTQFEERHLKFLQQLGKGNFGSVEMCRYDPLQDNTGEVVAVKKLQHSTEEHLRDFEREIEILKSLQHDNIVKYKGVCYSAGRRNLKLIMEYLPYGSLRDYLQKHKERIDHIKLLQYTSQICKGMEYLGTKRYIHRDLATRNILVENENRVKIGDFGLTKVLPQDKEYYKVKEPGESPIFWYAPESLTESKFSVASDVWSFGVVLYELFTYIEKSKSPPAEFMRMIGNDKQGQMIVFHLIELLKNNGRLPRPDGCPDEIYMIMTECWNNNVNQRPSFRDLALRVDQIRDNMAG

| Compound | Ki (JAK2) | EC50 ([1]; Homo sapiens, PBMC, 0.5 h) | EC50 [2] | Ki (TYK2) | EC50 [1] |
| --- | --- | --- | --- | --- | --- |
| N#Cc1cccc(F)c1-c1cc(-n2ccc(N3CC[C@H](O)[C@H](O)C3)n2)c2c(n1)CNC2=O [I-136, 2-(4-(3-((3R,4S)-3,4-dihydroxypiperidin-1-yl)-1H-pyrazol-1-yl)-5-oxo-6,7-dihydro-5H-pyrrolo[3,4-b]pyridin-2-yl)-3-fluorobenzonitrile] | 0.1 to 10 nM | 30 to 100 nM | > 2000 nM | 0.009 to 0.1 nM |  |
| N#Cc1cccc(F)c1-c1cc(-n2ccc(N3CC[C@@H](O)[C@@H](O)C3)n2)c2c(n1)CNC2=O [I-137, 2-(4-(3-((3S,4R)-3,4-dihydroxypiperidin-1-yl)-1H-pyrazol-1-yl)-5-oxo-6,7-dihydro-5H-pyrrolo[3,4-b]pyridin-2-yl)-3-fluorobenzonitrile] | 0.1 to 10 nM |  | > 2000 nM | 0.1 to 10 nM | 100 to 2000 nM |
| N#Cc1cccc(F)c1-c1cc(-n2ccc(N3CCCC3=O)n2)c2c(n1)CNC2=O [I-139, 3-fluoro-2-(5-oxo-4-(3-(2-oxopyrrolidin-1-yl)-1H-pyrazol-1-yl)-6,7-dihydro-5H-pyrrolo[3,4-b]pyridin-2-yl)benzonitrile] | 10 to 100 nM | 100 to 2000 nM | 100 to 2000 nM | 0.1 to 10 nM |  |
| N#Cc1cccc(F)c1-c1cc(-n2ccc(N3CCNC(=O)CC3)n2)c2c(n1)CNC2=O [I-141, 3-fluoro-2-(5-oxo-4-(3-(5-oxo-1,4-diazepan-1-yl)-1H-pyrazol-1-yl)-6,7-dihydro-5H-pyrrolo[3,4-b]pyridin-2-yl)benzonitrile] | 0.1 to 10 nM | 100 to 2000 nM | 100 to 2000 nM | 0.009 to 0.1 nM |  |
| [2H]C1([2H])C[C@H](O)C([2H])([2H])N1c1ccn(-c2cc(-c3c(F)cccc3C#N)nc3c2C(=O)NC3)n1 [I-142, (S)-3-fluoro-2-(4-(3-(3-hydroxypyrrolidin-1-yl-2,2,5,5-d4)-1H-pyrazol-1-yl)-5-oxo-6,7-dihydro-5H-pyrrolo[3,4-b]pyridin-2-yl)benzonitrile] | 0.1 to 10 nM | 30 to 100 nM | 100 to 2000 nM | 0.009 to 0.1 nM |  |
| CN1CCN(C2CCCN(c3ccn(-c4cc(-c5c(F)cccc5C#N)nc5c4C(=O)NC5)n3)C2)CC1 (stereo not drawn) [I-147, 3-fluoro-2-(4-(3-(3-(4-methylpiperazin-1-yl)piperidin-1-yl)-1H-pyrazol-1-yl)-5-oxo-6,7-dihydro-5H-pyrrolo[3,4-b]pyridin-2-yl)benzonitrile] | 10 to 100 nM | 100 to 2000 nM | 100 to 2000 nM | 0.1 to 10 nM |  |
| N#Cc1cccc(F)c1-c1cc(-n2ccc(N3CC[C@H](O)C3=O)n2)c2c(n1)CNC2=O [I-148, (S)-3-fluoro-2-(4-(3-(3-hydroxy-2-oxopyrrolidin-1-yl)-1H-pyrazol-1-yl)-5-oxo-6,7-dihydro-5H-pyrrolo[3,4-b]pyridin-2-yl)benzonitrile] | ≥ 1000 nM | > 2000 nM | > 2000 nM | 10 to 100 nM |  |
| N#Cc1cccc(F)c1-c1cc(-n2ccc(N3CCCC(N4CCOCC4)C3)n2)c2c(n1)CNC2=O (stereo not drawn) [I-149, 3-fluoro-2-(4-(3-(3-morpholinopiperidin-1-yl)-1H-pyrazol-1-yl)-5-oxo-6,7-dihydro-5H-pyrrolo[3,4-b]pyridin-2-yl)benzonitrile] | 0.1 to 10 nM | 100 to 2000 nM | 100 to 2000 nM | 0.009 to 0.1 nM |  |
| C[C@H]1[C@H](O)CCN1c1ccn(-c2cc(-c3c(F)cccc3C#N)nc3c2C(=O)NC3)n1 [I-150, 3-fluoro-2-(4-(3-((2S,3R)-3-hydroxy-2-methylpyrrolidin-1-yl)-1H-pyrazol-1-yl)-5-oxo-6,7-dihydro-5H-pyrrolo[3,4-b]pyridin-2-yl)benzonitrile] | 0.1 to 10 nM | 30 to 100 nM | > 2000 nM | 0.009 to 0.1 nM |  |
| CC(C)c1ccn(-c2cc(-c3c(F)cccc3C#N)nc3c2C(=O)NC3)n1 [I-151, 3-fluoro-2-(4-(3-isopropyl-1H-pyrazol-1-yl)-5-oxo-6,7-dihydro-5H-pyrrolo[3,4-b]pyridin-2-yl)benzonitrile] | 100 to 1000 nM | 100 to 2000 nM | > 2000 nM | 0.1 to 10 nM |  |
| N#Cc1cccc(F)c1-c1cc(-n2ccc(N3CCCC(C(=O)N4CCCC4)C3)n2)c2c(n1)CNC2=O (stereo not drawn) [I-152, 3-fluoro-2-(5-oxo-4-(3-(3-(pyrrolidine-1-carbonyl)piperidin-1-yl)-1H-pyrazol-1-yl)-6,7-dihydro-5H-pyrrolo[3,4-b]pyridin-2-yl)benzonitrile] | 0.1 to 10 nM | 100 to 2000 nM | > 2000 nM | 0.1 to 10 nM |  |
| CN1CCN([C@H]2CCCN(c3ccn(-c4cc(-c5c(F)cccc5C#N)nc5c4C(=O)NC5)n3)C2)CC1 [I-155, (S)-3-fluoro-2-(4-(3-(3-(4-methylpiperazin-1-yl)piperidin-1-yl)-1H-pyrazol-1-yl)-5-oxo-6,7-dihydro-5H-pyrrolo[3,4-b]pyridin-2-yl)benzonitrile] | 10 to 100 nM | 100 to 2000 nM | > 2000 nM | 0.1 to 10 nM |  |
| CN1CCN([C@@H]2CCCN(c3ccn(-c4cc(-c5c(F)cccc5C#N)nc5c4C(=O)NC5)n3)C2)CC1 [I-156, (R)-3-fluoro-2-(4-(3-(3-(4-methylpiperazin-1-yl)piperidin-1-yl)-1H-pyrazol-1-yl)-5-oxo-6,7-dihydro-5H-pyrrolo[3,4-b]pyridin-2-yl)benzonitrile] | 10 to 100 nM | 100 to 2000 nM | 100 to 2000 nM | 0.1 to 10 nM |  |
| N#Cc1cccc(F)c1-c1cc(-n2ccc(N3CCC[C@H](N4CCOCC4)C3)n2)c2c(n1)CNC2=O [I-157, (S)-3-fluoro-2-(4-(3-(3-morpholinopiperidin-1-yl)-1H-pyrazol-1-yl)-5-oxo-6,7-dihydro-5H-pyrrolo[3,4-b]pyridin-2-yl)benzonitrile] | 10 to 100 nM | 100 to 2000 nM | > 2000 nM | 0.1 to 10 nM |  |
| N#Cc1cccc(F)c1-c1cc(-n2ccc(N3CCC[C@@H](N4CCOCC4)C3)n2)c2c(n1)CNC2=O [I-158, (R)-3-fluoro-2-(4-(3-(3-morpholinopiperidin-1-yl)-1H-pyrazol-1-yl)-5-oxo-6,7-dihydro-5H-pyrrolo[3,4-b]pyridin-2-yl)benzonitrile] | 10 to 100 nM | 100 to 2000 nM | > 2000 nM | 0.1 to 10 nM |  |
| CCNC(=O)C1CCCN(c2ccn(-c3cc(-c4c(F)cccc4C#N)nc4c3C(=O)NC4)n2)C1 (stereo not drawn) [I-159, 1-(1-(2-(2-cyano-6-fluorophenyl)-5-oxo-6,7-dihydro-5H-pyrrolo[3,4-b]pyridin-4-yl)-1H-pyrazol-3-yl)-N-ethylpiperidine-3-carboxamide] | 10 to 100 nM | 100 to 2000 nM | > 2000 nM | 0.1 to 10 nM |  |
| CC1O[C@H]2CN(c3ccn(-c4cc(-c5c(F)cccc5C#N)nc5c4C(=O)NC5)n3)C[C@H]2O1 (stereo partly drawn) [I-161, 3-fluoro-2-(4-(3-((3aR,6aS)-2-methyltetrahydro-5H-[1,3]dioxolo-[4,5-c]pyrrol-5-yl)-1H-pyrazol-1-yl)-5-oxo-6,7-dihydro-5H-pyrrolo[3,4-b]pyridin-2-yl)benzonitrile] | 10 to 100 nM | 100 to 2000 nM | 100 to 2000 nM | 0.1 to 10 nM |  |
| C[C@]1(O)CN(c2ccn(-c3cc(-c4c(F)cccc4C#N)nc4c3C(=O)NC4)n2)CC[C@H]1O [I-162, 2-(4-(3-((3S,4R)-3,4-dihydroxy-3-methylpiperidin-1-yl)-1H-pyrazol-1-yl)-5-oxo-6,7-dihydro-5H-pyrrolo[3,4-b]pyridin-2-yl)-3-fluorobenzonitrile] | 0.1 to 10 nM | 100 to 2000 nM | 100 to 2000 nM | 0.009 to 0.1 nM |  |
| N#Cc1cccc(F)c1-c1cc(-n2ccc(N3CCOC[C@@H]3CO)n2)c2c(n1)CNC2=O [I-163, (S)-3-fluoro-2-(4-(3-(3-(hydroxymethyl)morpholino)-1H-pyrazol-1-yl)-5-oxo-6,7-dihydro-5H-pyrrolo[3,4-b]pyridin-2-yl)benzonitrile] | 0.1 to 10 nM | 100 to 2000 nM | 100 to 2000 nM | 0.1 to 10 nM |  |
| N#Cc1cccc(F)c1-c1cc(-n2ccc(N3CC[C@]4(CCNC4=O)C3)n2)c2c(n1)CNC2=O [I-165, (R)-3-fluoro-2-(5-oxo-4-(3-(6-oxo-2,7-diazaspiro[4.4]nonan-2-yl)-1H-pyrazol-1-yl)-6,7-dihydro-5H-pyrrolo[3,4-b]pyridin-2-yl)benzonitrile] | 0.1 to 10 nM | 100 to 2000 nM | 100 to 2000 nM | 0.1 to 10 nM |  |
| N#Cc1cccc(F)c1-c1cc(-n2ccc(N3CC[C@@]4(CCNC4=O)C3)n2)c2c(n1)CNC2=O [I-166, (S)-3-fluoro-2-(5-oxo-4-(3-(6-oxo-2,7-diazaspiro[4.4]nonan-2-yl)-1H-pyrazol-1-yl)-6,7-dihydro-5H-pyrrolo[3,4-b]pyridin-2-yl)benzonitrile] | 0.1 to 10 nM | 100 to 2000 nM | 100 to 2000 nM | 0.009 to 0.1 nM |  |
